Test results reported in article PMC5760527, “Connexin 43 Hemichannel as a Novel Mediator of Sterile and Infectious Inflammatory Diseases” (Scientific Reports, 2018).

Columns and labels:
[1] = tested on: cytokines and chemokines, RAW 264.7 cells; assay: Cytokine antibody array; assay type: cell-based, murine; settings: P5 10 μM, LPS 16 h, 62-cytokine antibody array
Description: Murine Cytokine Antibody Arrays (Cat. No. M0308003, RayBiotech Inc., Norcross, GA, USA), which respectively detect 62 cytokines on one membrane, were used to determine cytokine levels in macrophage-conditioned culture medium as previously described[51],[54]. Briefly, the membranes were sequentially incubated with equal volumes cell-conditioned culture medium (200 μl), primary biotin-conjugated antibodies, and horseradish peroxidase–conjugated streptavidin.

[2] = tested on: macrophage Cx43 hemichannel activities, RAW 264.7 cells; assay: Lucifer Yellow dye uptake, hemichannel permeability, calcium-depleted; assay type: cell-based, murine; settings: P5 20 μM, LPS 0.5 μg/ml, 16 h, LY 15 min, P < 0.05 versus +LPS
From the text: Because connexon is the structural unit for both hemichannel (1 connexon) and gap junction (2 connexons from opposing cells), which are both permeable to similar molecular weight molecules, such as the Lucifer yellow (LY). Thus, the LY dye uptake could be used to determine the channel permeability of both hemichannel (as indicated by the rate of LY entry into the cells) and gap junction channels (as judged by the distance of intercellular LY diffusion). The LY dye uptake assay relied on the ability of this dye present in the extracellular milieu to cross the plasma membrane and became concentrated inside of the cell, which could be quantified by fluorescence microscopy. To determine the effects of Cx43 mimetic peptides on hemichannel permeability, RAW 264.7 cells were subjected to LPS stimulation (0.5 µg/ml, 16 h) before replacing the medium with fresh DMEM containing various Cx43 mimetic peptides, GAP26 (100 µM), TAT-GAP19 (200 µM) or P5 (20 µM). Following a brief incubation (15 min), EGTA (1 mM) was added to deplete free calcium prior to the addition of LY dye (1%). Fifteen min later, cells were fixed with 2% paraformaldehyde, and the number of LY-positive cells was counted. The ratio of LY-positive cells vs. total cell counts (DAPI staining) was used as the measurement of hemichannel permeability.

[3] = tested on: Cx43 gap junctions, NIH 3T3 fibroblasts; assay: Cx43 gap junction formation, immunostaining; assay type: cell-based; settings: P5 20 µM, overnight
Description: Primary peritoneal macrophages were isolated from Balb/c mice, stimulated with LPS or SAA for 6 h, and immunostained with an affinity-purified rabbit anti-Cx43 IgGs (1:1,000 dilution at 4 °C) as previously described. Non-immune NIH 3T3 cells were grown on glass coverslips to confluency to allow formation of gap junctional channels. The growth medium was changed to DMEM before an overnight incubation with P5 (20 µM). Cells were then fixed with 2% paraformaldehyde, incubated for 16 hr with a well-characterized affinity-purified rabbit anti-Cx43 IgGs as previously described. After extensive washing, cells were incubated with donkey anti-rabbit Alexa 488 (Invitrogen) for 1 hr at room temperature. The coverslips were subsequently mounted on glass slides using anti-fade medium and examined using an epi-fluorescence microscope.

[4] = tested on: gap junctional intercellular communication, NIH 3T3 fibroblasts; assay: Scrape-loading assay of GJ intercellular communication; assay type: cell-based; settings: LY (444 Da) and rhodamine dextran (10,000 Da), overnight or 20 min incubation, 2 min diffusion
Description: We used NIH 3T3 fibroblasts to investigate the effects of Cx43 mimetic peptides on GJ permeability employing a technique termed scrape-loading. After overnight or 20 min incubation with or without Cx43 mimetic peptides in DMEM, EGTA was added to DMEM to deplete free calcium. Immediately afterwards, 1% LY and 1% rhodamine dextran was added into PBS, followed by scraping the cell monolayer with a pipette tip loading tracers into cytoplasmic compartment of scraped cells. Tracers were allowed to diffuse to adjacent cells for 2 min before immobilized by PF fixation for 10 minutes. Cells were subsequently extensively washed in PBS three times and coversliped to allow examination of LY diffusion.

Substance: ENVCYD [P5, cysteine-containing Cx43 EL1 mimetic hexamer peptide, P5 (ENVCYD)]
- other cytokines and chemokines [1]: did not affect
- effect on endotoxin-induced hemichannel activities (LY dye uptake) [2]: significantly inhibited the endotoxin-induced elevation of hemichannel activities
- GJ formation (Cx43 punctate immunostaining) [3]: did not alter the punctate immunostaining profile of Cx43
- gap junctional transfer of LY / RD immobility [4]: no obvious difference in the LY diffusion or RD immobility patterns
